Test results taken from ChEMBL document CHEMBL3580628, “Introduction of polar groups on the naphthalene scaffold of molecular tongs inhibiting wild-type and mutated HIV-1 protease dimerization” (Medchemcomm, 2014).

Experiments:
[1] = target: Protease (Human immunodeficiency virus 1) (UniProt Q9YQ12); assay: Competitive inhibition of HIV1 protease using fluorogenic substrate DABCYL- -abu-SQNYPIVQ-EDANS assessed as dissociation for dimer-inhibitor complex at 28 uM at pH 4.7 by fluorimetric assay
[2] = Retention time of the compound; format: physicochemical
Protease [3] = target: T1, Protease (Human immunodeficiency virus 1, UniProt Q9YQ12); assay: Dimerziation inhibition of HIV1 wild type protease using fluorogenic substrate DABCYL- -abu-SQNYPIVQ-EDANS at pH 4.7 by fluorimetric assay
[4] = Dimerziation inhibition of HIV1 ANAM11 protease mutant using fluorogenic substrate DABCYL- -abu-SQNYPIVQ-EDANS at pH 4.7 by fluorimetric assay; set-up: species or system Human immunodeficiency virus 1
Protease [5] = target: T1, Protease; assay: Competitive inhibition of HIV1 protease using fluorogenic substrate DABCYL- -abu-SQNYPIVQ-EDANS assessed as dissociation for dimer-inhibitor complex at pH 4.7 by fluorimetric assay
[6] = Metabolic stability in Roswell park memorial institute medium containing 20% fetal calf serum assessed as degradation after 48 hrs by HPLC analysis; format: ADME; conditions: cattle

Compound	inhibition [1] [%]	Retention_time [2] [min]	Ki (Protease [5]) [µM]	Ki (Protease [3]) [µM]	Ki [4] [µM]	Stability [6]
COc1ccc(NC(C)=O)cc1C(=O)NNC(=O)[C@H](CCCCNC(=O)CCCOc1ccc2cc(CCCN(C)C)c(OCCCC(=O)NCCCC[C@H](NC(=O)OC(C)(C)C)C(=O)NNC(=O)c3cc(NC(C)=O)ccc3OC)cc2c1)NC(=O)OC(C)(C)C	0	11.4	–	–	–	–
COc1ccc(NC(C)=O)cc1C(=O)NNC(=O)[C@@H](NC(=O)CCCOc1ccc2cc(N)c(OCCCC(=O)N[C@H](C(=O)NNC(=O)c3cc(NC(C)=O)ccc3OC)C(C)C)cc2c1)C(C)C	–	10.6	–	0.4	0.94	–
COc1ccc(NC(C)=O)cc1C(=O)NNC(=O)[C@@H](NC(=O)CCCOc1ccc2ccc(OCCCC(=O)N[C@H](C(=O)NNC(=O)c3cc(NC(C)=O)ccc3OC)C(C)C)cc2c1)C(C)C	–	13.8	–	0.22	–	–
COc1ccc(NC(C)=O)cc1C(=O)NNC(=O)[C@H](CCCCNC(=O)CCCOc1ccc2cc(NCC3COC(C)(C)O3)c(OCCCC(=O)NCCCC[C@H](NC(=O)OC(C)(C)C)C(=O)NNC(=O)c3cc(NC(C)=O)ccc3OC)cc2c1)NC(=O)OC(C)(C)C (some centres not stated)	–	15.2	–	5.9	–	–
COc1ccc(NC(C)=O)cc1C(=O)NNC(=O)[C@@H](NC(=O)CCCOc1ccc2cc(NCC(O)CO)c(OCCCC(=O)N[C@H](C(=O)NNC(=O)c3cc(NC(C)=O)ccc3OC)C(C)C)cc2c1)C(C)C (some centres not stated)	–	11.3	–	0.6	0.94	Stable
COc1ccc(NC(C)=O)cc1C(=O)NNC(=O)[C@H](CCCCNC(=O)CCCOc1ccc2cc(CN)c(OCCCC(=O)NCCCC[C@H](NC(=O)OC(C)(C)C)C(=O)NNC(=O)c3cc(NC(C)=O)ccc3OC)cc2c1)NC(=O)OC(C)(C)C	–	11.1	–	0.3	2.45	–
COc1ccc(NC(C)=O)cc1C(=O)NNC(=O)[C@H](CCCCNC(=O)CCCOc1ccc2ccc(OCCCC(=O)NCCCC[C@H](NC(=O)OC(C)(C)C)C(=O)NNC(=O)c3cc(NC(C)=O)ccc3OC)cc2c1)NC(=O)OC(C)(C)C	–	14.8	–	0.28	2	–
COc1ccc(NC(C)=O)cc1C(=O)NNC(=O)[C@@H](NC(=O)CCCOc1ccc2cc(NCC3COC(C)(C)O3)c(OCCCC(=O)N[C@H](C(=O)NNC(=O)c3cc(NC(C)=O)ccc3OC)C(C)C)cc2c1)C(C)C (some centres not stated)	–	14.2	–	2.7	–	–
COc1ccc(NC(C)=O)cc1C(=O)NNC(=O)[C@H](CCCCNC(=O)CCCOc1ccc2cc(N)c(OCCCC(=O)NCCCC[C@H](NC(=O)OC(C)(C)C)C(=O)NNC(=O)c3cc(NC(C)=O)ccc3OC)cc2c1)NC(=O)OC(C)(C)C	–	12.2	–	0.55	0.83	Stable

Now from value to compound, other results behind:

inhibition [1] [%]	Retention_time [2] [min]	Ki (Protease [5]) [µM]	Compound	Ki (Protease [3]) [µM]	Ki [4] [µM]	Stability [6]
0	13.8	–	COc1ccc(NC(C)=O)cc1C(=O)NNC(=O)[C@H](CCCCNC(=O)CCCOc1ccc2cc(NC(=O)CN3CCN(C(=O)OCc4ccccc4)CC3)c(OCCCC(=O)NCCCC[C@H](NC(=O)OC(C)(C)C)C(=O)NNC(=O)c3cc(NC(C)=O)ccc3OC)cc2c1)NC(=O)OC(C)(C)C	–	–	–
18	11.1	–	CNCC(=O)Nc1cc2ccc(OCCCC(=O)NCCCC[C@H](NC(=O)OC(C)(C)C)C(=O)NNC(=O)c3cc(NC(C)=O)ccc3OC)cc2cc1OCCCC(=O)NCCCC[C@H](NC(=O)OC(C)(C)C)C(=O)NNC(=O)c1cc(NC(C)=O)ccc1OC	–	–	–
–	12.7	–	COc1ccc(NC(C)=O)cc1C(=O)NNC(=O)[C@H](CCCCNC(=O)CCCOc1ccc2cc(NCC(O)CO)c(OCCCC(=O)NCCCC[C@H](NC(=O)OC(C)(C)C)C(=O)NNC(=O)c3cc(NC(C)=O)ccc3OC)cc2c1)NC(=O)OC(C)(C)C (some centres not stated)	2.75	–	–
–	11.2	15	COc1ccc(NC(C)=O)cc1C(=O)NNC(=O)[C@H](CCCCNC(=O)CCCOc1ccc2cc(CNC(=N)N)c(OCCCC(=O)NCCCC[C@H](NC(=O)OC(C)(C)C)C(=O)NNC(=O)c3cc(NC(C)=O)ccc3OC)cc2c1)NC(=O)OC(C)(C)C	–	–	–
18	11.2	–	COc1ccc(NC(C)=O)cc1C(=O)NNC(=O)[C@H](CCCCNC(=O)CCCOc1ccc2cc(NC(=O)CN3CCNCC3)c(OCCCC(=O)NCCCC[C@H](NC(=O)OC(C)(C)C)C(=O)NNC(=O)c3cc(NC(C)=O)ccc3OC)cc2c1)NC(=O)OC(C)(C)C	–	–	–
35	11.4	–	COc1ccc(NC(C)=O)cc1C(=O)NNC(=O)[C@H](CCCCNC(=O)CCCOc1ccc2cc(CCCN)c(OCCCC(=O)NCCCC[C@H](NC(=O)OC(C)(C)C)C(=O)NNC(=O)c3cc(NC(C)=O)ccc3OC)cc2c1)NC(=O)OC(C)(C)C	–	–	–
